Source: PubChem BioAssay AID179 (DTP/NCI, 2004)
The source made the active and inactive calls.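 The calls were made as follows: active = compounds giving half or more protection of infected cells from virus-caused growth loss, again on retest; inactive = the rest.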

System: CEM cells HIV-1 protection, formazan growth assay
Assay: NCI AIDS Antiviral Assay
Settings: for IC50: measured here: growth of uninfected CEM cells
Summary of the method: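 Protection of CEM cells against HIV-1 measured as cell growth via soluble formazan read-out, with five concentrations tested on both infected and uninfected cells; failure to protect may reflect toxicity.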

| Compound | EC50 [µM] | IC50 [µM] | outcome |
| --- | --- | --- | --- |
| CCN1CCC(O)(/C=C/c2ccc(Cl)cc2)C(C(=O)/C=C/c2ccc(Cl)cc2)C1 (centres undefined) | > 21.4 | > 21.4 |  |
| CCCCN(C)CC(C(C)=O)C(c1ccccc1)c1c(O)c2ccccc2oc1=O (centres undefined) | > 67.6 | 60.3 |  |
| COC(=O)[C@H](Cc1ccccc1)NC(=O)N1CCCN(C(=O)N[C@@H](Cc2ccccc2)C(=O)OC)CCCN(C(=O)N[C@@H](Cc2ccccc2)C(=O)OC)CCC1 | > 100 | 27.5 |  |
| CC(=O)OCC1OC(n2c(C)cc(-c3ccco3)c(C#N)c2=S)C(OC(C)=O)C(OC(C)=O)C1OC(C)=O (centres undefined) | 126 | > 200 |  |
| CC(=O)C(=Cc1cccc(F)c1)C(C)=O | > 126 | 64.6 |  |
| CCCCCCCCCCCCCCCCSS(=O)(=O)c1ccc(C)cc1 | > 31.6 | > 31.6 |  |
| COc1cc2c3cc1Oc1c(OC)c(OC)cc4c1[C@H](Cc1cc5c(c(c1)Oc1ccc(cc1)CC3N(C)CC2)OCO5)N(C)CC4 (some centres undefined) |  |  | inactive |
| O=[N+]([O-])c1cccc2nc3ccccc3c(NCCC[N+]3([O-])CCOCC3)c12 | > 2 | 0.105 |  |
| Cc1nc2c(nc1C)C(=O)C(Br)=C(N)C2=O |  |  | inactive |
| CCCc1cc(=O)oc2c3c(c4c(c12)OC(C)(C)CC4)O[C@@H](C)[C@H](C)[C@H]3O | > 200 | 33.1 | inactive |
| CC(C)CC(NC(=O)C(CI)Cc1ccccc1)C(=O)Nc1ccccc1 (centres undefined) | > 100 | > 100 |  |
| CC(O)CN(CC(C)O)N(CC(C)O)CC(C)O (centres undefined) | > 955 | 219 |  |
| O=[N+]([O-])c1cccc2nc3ccccc3c(NCCCN3CCOCC3)c12 | > 0.2 | 0.0631 |  |
| CC(C)Cn1cnc2c(Cl)nc3ccccc3c21 | > 200 | 41.7 |  |
| CC12C(=C(C#N)C(=N)N1c1ccc(Cl)c(Cl)c1)C=C(O)CC2SCCS(=O)(=O)O (centres undefined) | 33.1 | 67.6 |  |
| COc1ccccc1NC(=O)C1=C(C)NC(C)=C(C(=O)Nc2ccccc2OC)C1c1cccc2c1OCO2 |  |  | inactive |
| Cc1cc(NC(=S)NNC(=O)Cn2nnc(-c3cccc(Cl)c3Cl)n2)ccc1Br | > 200 | 141 |  |
| C=CCCCCCCCCCC(C(=O)O)C(=O)O | > 977 | 550 |  |
| C=CCC1(OCc2ccccc2)C(=O)C(=O)OC1C1COC(C)(C)O1 (centres undefined) | > 200 | > 200 |  |
| N#C/C(=C\c1ccc(O)c(O)c1)C(=O)NCCCCCCCCNC(=O)/C(C#N)=C/c1ccc(O)c(O)c1 | > 200 | 13.8 |  |

| Compound | EC50 [µM] | IC50 [µM] | outcome |
| --- | --- | --- | --- |
| COC(=O)C(=O)C(C(=O)C(=O)Nc1ccccc1[N+](=O)[O-])c1nc2ccc([N+](=O)[O-])cc2[nH]c1=O (centres undefined) | > 269 | 245 |  |
| NNC(=O)Cn1ccnn1 | > 200 | > 200 |  |
| COc1ccc2nc3ccc(OC)cc3c(S(=O)(=O)Cc3ccc([N+](=O)[O-])cc3)c2c1 | > 200 | > 200 |  |
| NC(C(=O)O)C1=CCCC1 (centres undefined) | > 200 | > 200 |  |
| O=C(Nc1ccc(Cl)cc1Cl)C(=O)C(C(=O)c1ccncc1)C1OC(=O)c2ccccc21 (centres undefined) | > 178 | > 178 |  |
| COC(=O)c1c([N+](=O)[O-])ncn1[C@H]1OC[C@@H](OC(C)=O)[C@@H](OC(C)=O)[C@@H]1OC(C)=O | > 200 | > 200 |  |
| CC1(C)CC2C(=O)c3ccccc3NC2c2ccccc21 (centres undefined) | > 2 | 0.269 |  |
| CCC(C)(C)/C(CC(O)(C(F)(F)F)C(F)(F)F)=N\O | > 200 | > 200 |  |
| CC1C2Cc3ccc(O)cc3C1(C)CCN2CC1CC1 (centres undefined) | > 200 | > 200 |  |
| O=c1ccc(=O)n(-c2ccc(Cl)cc2)[nH]1 | > 162 | > 162 |  |
| O=C1CCCN1CO | > 200 | > 200 |  |
| COC(=O)CCC(=O)C(CC(=O)OC)C(=O)CCC(=O)NCCc1ccccc1 (centres undefined) | > 27.5 | > 27.5 |  |
| Cc1ccc(S(=O)(=O)ON2C(=O)c3cccc4cc([N+](=O)[O-])cc(c34)C2=O)cc1 | > 63.1 | > 63.1 |  |
| NCCNCCNCc1c2ccccc2c(CNCCNCCN)c2ccccc12 | 5.89 | 39.8 |  |
| N#CC(c1ccccc1)N(CCCCCCN(C(=O)c1ccccc1)C(C#N)c1ccccc1)C(=O)c1ccccc1 (centres undefined) | > 200 | 61.7 |  |
| CCOC(=O)C(CS)NC(=O)CCCCCCCC(=O)NC(CS)C(=O)OCC (centres undefined) | > 200 | 102 |  |
| C/C(=C1/CCC/C(=C(/C)c2ccccc2)C1=O)c1ccccc1 | > 9.12 | > 9.12 |  |
| CCn1c(SCc2nnc(Nc3ccccc3)s2)nc2ccccc2c1=O | > 200 | 69.2 |  |
| CC1(C)N/C(=C\C=O)C(C)(C)N1O | > 200 | > 200 |  |
| Nc1nc(Cl)cc(NCC2(O)CC2)n1 | > 200 | > 200 |  |

| Compound | EC50 [µM] | IC50 [µM] | outcome |
| --- | --- | --- | --- |
| CCCCNC(=S)/N=C/c1c(O)c2ccccc2[nH]c1=O | > 200 | > 200 |  |
| CC1C(NNC(N)=O)Oc2cc3c(cc2C1c1ccccc1O)OCO3 (centres undefined) | > 200 | 32.4 |  |
| Cc1c(C)c2c(c(N)c1C#N)C(=O)N(CCN1CCNCC1)C2=O | > 200 | 20.4 |  |
| CCC/C=[N+](\[O-])[C@@H]1CC(n2cc(C)c(=O)[nH]c2=O)OC1CO[Si](C)(C)C(C)(C)C (some centres undefined) | > 200 | 107 |  |
| O=C1NC(=O)/C(=C\c2cccc(Br)c2)N1 | > 200 | 105 |  |
| N#CN=C(N)NC(=O)c1ccccc1 |  |  | inactive |
| On1c(-c2ccccc2)nc2ccccc2c1=S | > 200 | 1.45 |  |
| COC(=O)C1=Cc2cc(OC)c(O)cc2[C@@H](c2ccc(O)c(OC)c2)[C@@H]1C(=O)OC | > 200 | 77.6 |  |
| O=C(Nc1ccccc1)Oc1ccccc1C1CCCCC1 |  |  | inactive |
| CCCCCCCCCCCC(=O)NCc1ccc(OC(=O)CCCCCCCCCCC)c(OC)c1 | > 200 | 40.7 |  |
| COc1ccc2c(c1)[n+](=O)c(C(=O)C/C(=N/OCCCc1ccccc1)C(=O)NC13CC4CC(CC(C4)C1)C3)c(C)n2[O-] | > 39.8 | > 39.8 |  |
| CC(C(=O)c1ccc(Cl)cc1)/C(=N/NC(=O)NN)C(=O)Nc1cccc(C(F)(F)F)c1 (centres undefined) | > 79.4 | > 79.4 |  |
| CCCCON1C[C@@H](O)C(O)[C@@H](O)C1 (some centres undefined) | > 200 | > 200 |  |
| O=C(C=Nc1ccccc1S)c1ccco1 |  |  | inactive |
| Cc1cc(C)c(S(=O)(=O)N(CCCCCN)OCCCN)c(C)c1 | > 200 | 30.2 |  |
| COc1ccc(SCc2cc(OCc3ccccc3)c(OCc3ccccc3)c(OCc3ccccc3)c2)cc1 | > 200 | > 200 |  |
| COc1cccc(C(CC(=O)O)=NCCc2c[nH]c3ccccc23)c1C(=O)O | > 603 | 316 |  |
| COc1nc2c(nc(N)n2C2OC(CO)C(O)C(O)C2O)c(=O)[nH]1 (centres undefined) |  |  | inactive |
| Cc1ccc(C(=O)Nc2ccc(S(=O)(=O)O)c3cc(S(=O)(=O)O)cc(S(=O)(=O)O)c23)cc1NC(=O)Nc1cc(C(=O)Nc2ccc(S(=O)(=O)O)c3cc(S(=O)(=O)O)cc(S(=O)(=O)O)c23)ccc1C | 138 | 209 |  |
| CO[C@H]1/C=C/O[C@@]2(C)Oc3c(C)c(O)c4c(O)c(c(/C=N/N5CCCN(Cc6ccccc6)CC5)c(O)c4c3C2=O)NC(=O)/C(C)=C\C=C\[C@H](C)[C@H](O)C(C)[C@@H](O)C(C)[C@H](OC(C)=O)[C@@H]1C (some centres undefined) | > 200 | 8.32 |  |
